Counter-ions that a name gives are not always drawn. Like-named read-outs stand apart in the source and are kept apart here.
How the values were obtained:
[1] = test system: C57BL/6 male mice; experiment: C57BL/6 hair growth after single topical dose; type: in vivo, mouse; conditions: shaved lower back, dosed topically once, visually graded for melanogenesis and hair regrowth
Experimental: A mouse model of male pattern baldness is used to investigate the effectiveness of the present compounds for growing hair. Agonists for the sonic hedgehog pathway that act by binding and activating Smoothened were tested in a formulation of 50:30:20 PG:EtOH:water or 5:95 DMSO:acetone vehicle. C57BL/6 male mice (48-52 days old on arrival) from Charles River Labs were used on the study. The mice were housed and cared for according to established procedures. Food and water were ad libitum. On Day 0, the mice were shaved on their lower back, an area of ˜1.5 inches×˜2 inches with Wahl clippers using a surgical blade. On day −3, the mice were anesthetized with isoflurane, their back was rinsed with a pad of 70% ethanol, a placebo pellet or a DHT pellet (2.5 mg 21 day pellet) were implanted subcutaneously between the shoulder blades with a 10 gauge trochar. DHT pellet transplantation results in maintenance of existing hair follicles in the resting (telogen) phase. The hole was stapled with a sterile autoclip and the mice were returned to their cage after awaking. The mice were dosed topically once and visually graded daily, except weekends, for melanogenesis and hair regrowth of fur in the dosed area (Table 4).

[2] = test system: sonic hedgehog pathway, TM3 mouse Leydig cells; experiment: Hedgehog pathway Gli-luciferase reporter assay in TM3 cells; type: cell-based
Source text: (§1) Mouse (TM3: mouse Leydig cells; S12: mouse embryonic mesenchymal cells) and human (Daoy: human medulloblastoma cell; HepM: human embryonic palatal mesenchymal cell) cell lines are used to screen small molecules for their ability to modulate the activity of the sonic hedgehog pathway (Table 1, Table 2, and Table 3). Stable hedgehog pathway reporter cell lines are established by specific antibiotic selection following transfection of a reporter plasmid containing a luciferase gene located directly downstream from the gli promoter. Consequently, any observable changes in cellular luciferase activity may be attributed to changes in sonic hedgehog pathway activity in mouse and human cells, respectively, since gli is the major by-product of this pathway. To calculate activity, we generate an eleven point dose curve for each compound using 1:3 dilutions in 96 well assay plates. Each plate tested also contains low and high control to establish maximal pathway activation so to establish/compare a percentage activation of each tested compound (AMAX) on respective plates. Also we calculate EC50 values, or a concentration where the pathway will be exactly 50% activated, for each tested compound to determine potency. In these cell lines, compounds that register >20% AMAX values are considered active.
(§2) Stable hedgehog pathway reporter cell lines are established following specific antibiotic selection following transfection of a reporter plasmid In short, typically cells are plated in MicroTiter-plates at 10,000-20,000 cells per well, in growth media (containing 10%-20% FBS). After 48-72 hrs (HGL and DGL respectively) the media in the assay plates is switched to low-serum containing media (0.5% FBS). At that time compounds are added (at 1-5 μM) to the assay plates, in the presence or absence of hedgehog protein (octyl-modified version; 1-5 ng/ml). After another 24 hrs of incubation, the media from the assay plates is discarded and replaced with luciferase assay-mix. Subsequently, plates are incubated at RT for ˜15-30 mins and then read in a luminometer. [note: addition of the Hedgehog protein, although not critical, will sensitize the assay allowing the identification of weak actives].

[3] = test system: sonic hedgehog pathway, HepM human embryonic palatal mesenchymal cells; experiment: Human hedgehog reporter assay HEPM-GliLuc (HGL); type: cell-based; conditions: gli-luciferase reporter
Source text: as §1, §2

[4] = test system: sonic hedgehog pathway, Daoy human medulloblastoma cells; experiment: Human hedgehog reporter assay Daoy-GliLuc (DGL); type: cell-based; conditions: gli-luciferase reporter, read-out: Daoy Avg. EC50
Source text: as §1, §2

[5] = HepM human embryonic palatal mesenchymal cells, Table 1
[6] = Daoy human medulloblastoma cells, Table 1

| SMILES | EC50 ([2]; Table 1) [nM] | EC50 [4, 6] [nM] | EC50 [3, 5] [nM] | other results |
| --- | --- | --- | --- | --- |
| CCOc1ccc(-c2ccc(C)nc2)cc1CN(C(=O)c1sc2ccccc2c1Cl)[C@H]1CC[C@H](NC)CC1 |  |  |  | C57BL/6 Hair Growth [1]: yes |
| CCOc1ccc(-c2ccc(C(F)(F)F)cc2)cc1CN(C(=O)c1sc2ccccc2c1Cl)[C@H]1CC[C@@H](NC)CC1 [Compound 309, 3-Chloro-benzo[b]thiophene-2-carboxylic acid (4-ethoxy-4′-trifluoromethyl-biphenyl-3-ylmethyl)-(4-methylamino-cyclohexyl)-amide hydrochloride] | 50 to 250 | < 50 |  |  |
| CCOc1ccc(-c2ccc(OC)cc2)cc1CN(C(=O)c1sc2ccccc2c1Cl)[C@H]1CC[C@@H](NC)CC1 [Compound 312, 3-Chloro-benzo[b]thiophene-2-carboxylic acid (4-ethoxy-4′-methoxy-biphenyl-3-ylmethyl)-(4-methylamino-cyclohexyl)-amide hydrochloride] |  | 50 to 250 |  |  |
| CCOc1ccc(-c2ccccc2)cc1CN(C(=O)c1sc2ccccc2c1Cl)[C@H]1CC[C@@H](NC)CC1 [Compound 313, 3-Chloro-benzo[b]thiophene-2-carboxylic acid (4-ethoxy-biphenyl-3-ylmethyl)-(4-methylamino-cyclohexyl)-amide hydrochloride] | 50 to 250 | < 50 |  |  |
| CN[C@H]1CC[C@@H](N(Cc2cc(-c3cnc(N(C)C)nc3)ccc2OC)C(=O)c2sc3ccccc3c2Cl)CC1 [Compound 321, 3-Chloro-benzo[b]thiophene-2-carboxylic acid [5-(2-dimethylamino-pyrimidin-5-yl)-2-methoxy-benzyl]-(4-methylamino-cyclohexyl)-amide dihydrochloride] | 1000 to 2500 | 50 to 250 |  |  |
| CCOc1ccc(-c2cncnc2)cc1CN(C(=O)c1sc2ccccc2c1Cl)[C@H]1CC[C@@H](NC)CC1 [Compound 326, 3-Chloro-benzo[b]thiophene-2-carboxylic acid (2-ethoxy-5-pyrimidin-5-yl-benzyl)-(4-methylamino-cyclohexyl)-amide dihydrochloride] | 50 to 250 | < 50 | 50 to 250 |  |
| CN[C@H]1CC[C@@H](N(Cc2cc(-c3ccc(C#N)cc3)ccc2OC)C(=O)c2sc3c(F)ccc(F)c3c2Cl)CC1 [Compound 351, 3-Chloro-4,7-difluoro-benzo[b]thiophene-2-carboxylic acid (4′-cyano-4-methoxy-biphenyl-3-ylmethyl)-(4-methylamino-cyclohexyl)-amide hydrochloride] | < 50 |  | < 50 |  |
| CN[C@H]1CC[C@@H](N(Cc2cc(-c3cccc(C(C)=O)c3)ccc2OC)C(=O)c2sc3c(F)ccc(F)c3c2Cl)CC1 [Compound 364, 3-Chloro-4,7-difluoro-benzo[b]thiophene-2-carboxylic acid (3′-acetyl-4-methoxy-biphenyl-3-ylmethyl)-(4-methylamino-cyclohexyl)-amide hydrochloride] | < 50 |  | < 50 |  |
| CN[C@H]1CC[C@@H](N(Cc2cc(-c3cccc(C#N)c3)ccc2OC)C(=O)c2sc3cccc(F)c3c2Cl)CC1 [Compound 365, 3-Chloro-4-fluoro-benzo[b]thiophene-2-carboxylic acid (3′-cyano-4-methoxy-biphenyl-3-ylmethyl)-(4-methylamino-cyclohexyl)-amide hydrochloride] | < 50 | < 50 |  |  |
| CN[C@H]1CC[C@@H](N(Cc2cc(-c3ccc(C#N)cc3)ccc2OC)C(=O)c2sc3cccc(F)c3c2Cl)CC1 [Compound 366, 3-Chloro-4-fluoro-benzo[b]thiophene-2-carboxylic acid (4′-cyano-4-methoxy-biphenyl-3-ylmethyl)-(4-methylamino-cyclohexyl)-amide hydrochloride] | < 50 | < 50 |  |  |
| CN[C@H]1CC[C@H](N(Cc2cc(-c3ccc(N)nc3C)ccc2OC)C(=O)c2sc3ccccc3c2Cl)CC1 [Compound 398, 3-Chloro-benzo[b]thiophene-2-carboxylic acid [5-(6-amino-2-methyl-pyridin-3-yl)-2-methoxy-benzyl]-(4-methylamino-cyclohexyl)-amide dihydrochloride] |  |  |  | EC50 ([2]; Table 3): 1000 to 2500 nM; EC50 ([3]; HepM human cells, Table 3): 1000 to 2500 nM; EC50 ([4]; Daoy human cells, Table 3): 250 to 1000 nM |
| CN[C@H]1CC[C@H](N(Cc2cc(-c3ccc(C(O)C(F)(F)F)cc3)ccc2F)C(=O)c2sc3ccccc3c2Cl)CC1 (stereo partly shown) [Compound 433, 3-Chloro-benzo[b]thiophene-2-carboxylic acid [4-fluoro-4′-(2,2,2-trifluoro-1-hydroxy-ethyl)-biphenyl-3-ylmethyl]-(4-methylamino-cyclohexyl)-amide hydrochloride] |  |  |  | EC50 ([2]; Table 3): < 50 nM; EC50 ([4]; Daoy human cells, Table 3): < 50 nM |
| CN[C@H]1CC[C@@H](N(Cc2cc(-c3ccnc(C(=O)O)c3)ccc2OC)C(=O)c2sc3c(F)ccc(F)c3c2Cl)CC1 [Compound R6, 4-(3-{[(3-Chloro-4,7-difluoro-benzo[b]thiophene-2-carbonyl)-(4-methylamino-cyclohexyl)-amino]-methyl}-4-methoxy-phenyl)-pyridine-2-carboxylic acid bis(trifluoroacetate)] | 50 to 250 |  | 50 to 250 |  |
| CN[C@H]1CC[C@@H](N(Cc2cc(-c3ccc(S(C)(=O)=O)cc3)ccc2OC)C(=O)c2sc3ccccc3c2Cl)CC1 [Compound R7, 3-Chloro-benzo[b]thiophene-2-carboxylic acid (4′-methanesulfonyl-4-methoxy-biphenyl-3-ylmethyl)-(4-methylamino-cyclohexyl)-amide hydrochloride] | < 50 |  | < 50 |  |

Further lines, with some results ahead:

| EC50 ([2]; Table 1) [nM] | EC50 [4, 6] [nM] | SMILES | EC50 [3, 5] [nM] | other results |
| --- | --- | --- | --- | --- |
| < 50 | < 50 | CNC(=O)c1cc(-c2ccc(OC)c(CN(C(=O)c3sc4c(F)ccc(F)c4c3Cl)[C@H]3CC[C@H](NC)CC3)c2)ccn1 [356 (R21), 4-(3-{([(3-Chloro-4,7-difluoro-benzo[b]thiophene-2-carbonyl)-(4-methylamino-cyclohexyl)-amino]-methyl}-4-methoxy-phenyl)-pyridine-2-carboxylic acid methylamidedihydrochloride] | < 50 |  |
| < 50 | < 50 | CN[C@H]1CC[C@@H](N(Cc2cc(-c3cccc(C#N)c3)ccc2OC)C(=O)c2sc3ccccc3c2Cl)CC1 [Compound 304, 3-Chloro-benzo[b]thiophene-2-carboxylic acid (3′-cyano-4-methoxy-biphenyl-3-ylmethyl)-(4-methylamino-cyclohexyl)-amide hydrochloride] | < 50 |  |
| < 50 | < 50 | CN[C@H]1CC[C@@H](N(Cc2cc(-c3ccc(OC(F)(F)F)cc3)ccc2OC)C(=O)c2sc3ccccc3c2Cl)CC1 [Compound 307, 3-Chloro-benzo[b]thiophene-2-carboxylic acid (4-methoxy-4′-trifluoromethoxy-biphenyl-3-ylmethyl)-(4-methylamino-cyclohexyl)-amide hydrochloride] |  |  |
| < 50 |  | CN[C@H]1CC[C@@H](N(Cc2cc(-c3ccc(C)nc3)ccc2OC)C(=O)c2sc3ccccc3c2Cl)CC1 [Compound 320, 3-Chloro-benzo[b]thiophene-2-carboxylic acid [2-methoxy-5-(6-methyl-pyridin-3-yl)-benzyl]-(4-methylamino-cyclohexyl)-amide dihydrochloride] | < 50 |  |
| < 50 |  | CN[C@H]1CC[C@@H](N(Cc2cc(-c3cccc(C#N)c3)ccc2OC)C(=O)c2sc3c(F)ccc(F)c3c2Cl)CC1 [Compound 337, 3-Chloro-4,7-difluoro-benzo[b]thiophene-2-carboxylic acid (3′-cyano-4-methoxy-biphenyl-3-ylmethyl)-(4-methylamino-cyclohexyl)-amide hydrochloride] | < 50 |  |
| < 50 | < 50 | CN[C@H]1CC[C@@H](N(Cc2cc(-c3ccc(CCl)cc3)ccc2OC)C(=O)c2sc3ccccc3c2Cl)CC1 [Compound 340, 3-Chloro-benzo[b]thiophene-2-carboxylic acid (4′-chloromethyl-4-methoxy-biphenyl-3-ylmethyl)-(4-methylamino-cyclohexyl)-amide hydrochloride] | < 50 |  |
